Experimental data published in patent US11306102B2, “1,3-di-substituted ketene compound and application thereof” (BEBETTER MED INC., priority 2017, dated 2022).

What was measured:
PPARγ = target: T1, PPARγ (Homo sapiens, UniProt P37231); test: Hela cell/luciferase reporter gene method, PPARγ agonist activity; format: cell-based; settings: for EC50: Hela cells, pPPRE3-TK-Luciferase reporter, 24 hrs incubation, read-out: agonistic activity on PPARγ (EC50)
T1 construct: expressed in transfected cells; host or cells: Hela cells
T1 sequence (P37231 1-505): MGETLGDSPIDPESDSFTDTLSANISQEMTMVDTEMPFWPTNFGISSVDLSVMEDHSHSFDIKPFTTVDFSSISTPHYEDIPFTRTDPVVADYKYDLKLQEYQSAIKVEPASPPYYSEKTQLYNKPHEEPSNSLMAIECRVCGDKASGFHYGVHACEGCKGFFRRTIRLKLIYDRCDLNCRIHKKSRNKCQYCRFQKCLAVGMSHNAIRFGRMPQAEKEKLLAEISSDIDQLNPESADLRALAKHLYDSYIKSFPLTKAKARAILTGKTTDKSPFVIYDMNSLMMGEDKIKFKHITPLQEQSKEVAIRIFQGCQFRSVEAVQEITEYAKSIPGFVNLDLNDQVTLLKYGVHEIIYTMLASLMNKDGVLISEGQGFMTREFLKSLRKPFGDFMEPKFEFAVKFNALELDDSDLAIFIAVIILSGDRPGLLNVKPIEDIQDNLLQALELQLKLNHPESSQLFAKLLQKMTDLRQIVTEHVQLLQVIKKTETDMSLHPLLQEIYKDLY
Procedure, shortened: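 HeLa cells co-transfected with pPPRE3-TK-firefly luciferase and PPARα, δ or γ expression vector (reporter:receptor 6:1, 8:1, 2:1 respectively). Cells exposed 24 h at 37 °C in 1% FBS medium to 8-point 4-fold dilution series; luciferase luminescence read, EC50 derived.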

[1] = Pharmacokinetic (PK) experiments after intragastric administration in rats; format: in vivo, SD rats; settings: for AUC(0-inf) / AUC(0-t) / Cmax / Tmax / half-life: male, SD, rat, plasma, po, intragastric administration 20 mg/kg; for half-life: read-out: Terminal T1/2 (converted)
Method: Male SD rats, weighing 250-300 grams, were fasted overnight before testing. The test compound was dissolved in 30% sulfobutyl-R-cyclodextrin (SBE-β-CD) and administered intragastrically at a dose of 20 mg/kg. Blood was collected 15 minutes, 30 minutes, and 1, 2, 3, 4, […] and 24 hours after the administration. About 0.3 ml of blood was collected at each time point, placed in a centrifuge tube containing K2-EDTA (dipotassium ethylenediamine tetraacetate) and centrifuged (2,000 g, 10 minutes, 4° C.) to take the plasma, which was stored in an ultra-low temperature refrigerator at −80° C. A 50 μL plasma sample was mixed with 5 μl of internal standard (IS) and extracted with ethyl acetate. The residue was redissolved in acetonitrile after drying under vacuum. The sample was filtered and injected into an LC-MS/MS for analysis.

| SMILES | EC50 (PPARγ) | activation of PPARγ compared with Elafibranor (in words) (PPARγ; compared with Elafibranor) | AUC(0-inf) [1] | AUC(0-t) [1] | Cmax [1] | Tmax [1] | half-life [1] | absorption after oral administration compared with Elafibranor (in words) [1] | blood exposure after oral administration compared with Elafibranor (in words) [1] | half-life after oral administration compared with Elafibranor (in words) [1] |
| --- | --- | --- | --- | --- | --- | --- | --- | --- | --- | --- |
| CSc1ccc2cc(C(=O)/C=C/c3cc(Cl)c(OC(C)(C)C(=O)O)c(Cl)c3)oc2c1 [Compound 100, (E)-2-(2,6-dichloro-4-(3-(6-(methylthio)benzofuran-2-yl)-3-oxoprop-1-en-1-yl)phenoxy)-2-methylpropanoic acid] | 475 nM | significantly reduced | 14000 ng·h/mL | 13800 ng·h/mL | 7730 ng/mL | 0.25 h | 4.41 h | good absorption | highly effective blood exposure | significantly prolonged half-life |
| Cc1cc(/C=C/C(=O)c2ccc3c(c2)CCS3)cc(C)c1OC(C)(C)C(=O)O [Compound 36, (E)-2-(4-(3-(2,3-dihydrobenzo[b]thiophen-5-yl)-3-oxoprop-1-en-1-yl)-2,6-dimethylphenoxy)-2-methylpropanoic acid] | 31.6 nM |  | 3380 ng·h/mL | 3340 ng·h/mL | 2740 ng/mL | 0.38 h | 6.42 h | good absorption | highly effective blood exposure | significantly prolonged half-life |
